Patent US20260262643A1, “HERBICIDAL BENZOXAZINES” (FMC CORPORATION, priority 2022, published 2026)

Legend:
ducksalad = assay: Test D flooded paddy test; format: in vivo, Heteranthera limosa; details: 250 g ai/ha, applied to paddy water, visual rating after 13 to 14 days, scale 0 to 100 (0 no effect, 100 complete control)
Method in brief: (§1)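 2-leaf plants; flood 3 cm above soil; compound dosed into paddy water; greenhouse 13–14 d; visual rating vs controls, 0–100 (100 = complete control); dash = not tested.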

soybean [1] = assay: Test C postemergence; format: in vivo, Glycine max; details: Postemergence, 500 g ai/ha, 10 days, visual 0 to 100 scale (0 no effect, 100 complete control)
Method in brief: (§2)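 Visual injury ratings on a 0–100 scale (100 = complete control) were made against untreated controls 10 days after treatment in the greenhouse. Compounds, formulated with surfactant in non-phytotoxic solvent, were sprayed on soil preemergence or onto one- to two-leaf plants 2–10 cm tall postemergence.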

barnyardgrass [2] = assay: Test C preemergence; format: in vivo, Echinochloa crusgalli; details: 0 to 100 scale (0 no effect, 100 complete control)
Method in brief: as §2

barnyardgrass [3] = assay: Test D flooded paddy test; format: in vivo, Echinochloa crus-galli; details: 250 g ai/ha, applied to paddy water, visual rating after 13 to 14 days, scale 0 to 100 (0 no effect, 100 complete control)
Method in brief: as §1

ragweed [4] = assay: Test C preemergence; format: in vivo, Ambrosia artemisiifolia; details: 0 to 100 scale (0 no effect, 100 complete control)
Method in brief: as §2

kochia [5] = assay: Test C preemergence; format: in vivo, Bassia scoparia; details: 0 to 100 scale (0 no effect, 100 complete control)
Method in brief: as §2

green foxtail [6] = assay: Test C preemergence; format: in vivo, Setaria viridis; details: 0 to 100 scale (0 no effect, 100 complete control)
Method in brief: as §2

corn [7] = assay: Test C preemergence; format: in vivo, Zea mays; details: 0 to 100 scale (0 no effect, 100 complete control)
Method in brief: as §2

kochia [8] = assay: Test C postemergence; format: in vivo, Bassia scoparia; details: 10 days
Method in brief: as §2

wheat [9] = assay: Test C postemergence; format: in vivo, Triticum aestivum; details: 10 days
Method in brief: as §2

rice = assay: Test D flooded paddy test; format: in vivo, Oryza sativa; details: 250 g ai/ha, applied to paddy water, visual rating after 13 to 14 days, scale 0 to 100 (0 no effect, 100 complete control)
Method in brief: as §1

blackgrass [10] = assay: Test C preemergence; format: in vivo, Alopecurus myosuroides; details: 0 to 100 scale (0 no effect, 100 complete control)
Method in brief: as §2

wheat [11] = assay: Test C preemergence; format: in vivo, Triticum aestivum; details: 0 to 100 scale (0 no effect, 100 complete control)
Method in brief: as §2

oat, wild [12] = assay: Test C preemergence; format: in vivo, Avena fatua; details: 0 to 100 scale (0 no effect, 100 complete control)
Method in brief: as §2

oat, wild [13] = assay: Test C postemergence; format: in vivo, Avena fatua; details: 10 days
Method in brief: as §2

pigweed, palmer [14] = assay: Test C postemergence; format: in vivo, Amaranthus palmeri; details: 10 days
Method in brief: as §2

barnyardgrass [15] = assay: Test C postemergence; format: in vivo, Echinochloa crusgalli; details: 10 days
Method in brief: as §2

soybean [16] = assay: Test C preemergence; format: in vivo, Glycine max; details: 0 to 100 scale (0 no effect, 100 complete control)
Method in brief: as §2

galium = assay: Test C postemergence; format: in vivo, Galium aparine; details: 10 days
Method in brief: as §2

corn [17] = assay: Test C postemergence; format: in vivo, Zea mays; details: 10 days
Method in brief: as §2

blackgrass [18] = assay: Test C postemergence; format: in vivo, Alopecurus myosuroides; details: 10 days
Method in brief: as §2

horseweed = assay: Test C postemergence; format: in vivo, Erigeron canadensis; details: 10 days
Method in brief: as §2

sedge, umbrella = assay: Test D flooded paddy test; format: in vivo, Cyperus difformis; details: 250 g ai/ha, applied to paddy water, visual rating after 13 to 14 days, scale 0 to 100 (0 no effect, 100 complete control)
Method in brief: as §1

ragweed [19] = assay: Test C postemergence; format: in vivo, Ambrosia artemisiifolia; details: Postemergence, 500 g ai/ha, 10 days, visual 0 to 100 scale (0 no effect, 100 complete control)
Method in brief: as §2

green foxtail [20] = assay: Test C postemergence; format: in vivo, Setaria viridis; details: 10 days
Method in brief: as §2

ryegrass, Italian = assay: Test C postemergence; format: in vivo, Lolium multiflorum; details: 10 days
Method in brief: as §2

pigweed, palmer [21] = assay: Test C preemergence; format: in vivo, Amaranthus palmeri; details: 0 to 100 scale (0 no effect, 100 complete control)
Method in brief: as §2

[22] = Preemergence, 500 g ai/ha, visual rating after 10 days
[23] = Test C, preemergence, 125 g ai/ha
[24] = 125 g ai/ha, postemergence, 0 to 100 scale, 0 no effect, 100 complete control
[25] = Postemergence, 500 g ai/ha, visual 0 to 100 scale (0 no effect, 100 complete control)

## CCc1c(C)cc(-n2cnc(C(C)C)n2)cc1C(=O)N1C[C@H](C)Oc2c(Cl)cccc21 [Compound 179]
ducksalad
  Plant response rating, Ducksalad (Flood): 0
Soybean [1]
  Plant response rating, Soybean: 40
Barnyardgrass [2]; [22]
  Plant response rating, Barnyardgrass: 0
Barnyardgrass [2]; [23]
  Barnyardgrass plant response rating: 0
Barnyardgrass [3]
  Plant response rating, Barnyardgrass (Flood): 0
Ragweed [4]; [22]
  Plant response rating, Ragweed: 0
Ragweed [4]; [23]
  Ragweed plant response rating: 0
Kochia [5]; [22]
  Plant response rating, Kochia: 0
Kochia [5]; [23]
  Kochia plant response rating: 0
Green foxtail [6]; [22]
  Plant response rating, Foxtail, Green: 50
Green foxtail [6]; [23]
  Foxtail, Green plant response rating: 0
Corn [7]; [22]
  Plant response rating, Corn: 0
Corn [7]; [23]
  Corn plant response rating: 0
Kochia [8]; [24]
  Plant response rating, Kochia: 30
Kochia [8]; [25]
  Plant response rating, Kochia: 30
Wheat [9]; [24]
  Plant response rating, Wheat: 10
Wheat [9]; [25]
  Plant response rating, Wheat: 10
rice
  Plant response rating, Rice (Flood): 0
Blackgrass [10]; [22]
  Plant response rating, Blackgrass: 0
Blackgrass [10]; [23]
  Blackgrass plant response rating: 0
Wheat [11]; [22]
  Plant response rating, Wheat: 0
Wheat [11]; [23]
  Wheat plant response rating: 0
oat, wild [12]; [22]
  Plant response rating, Oat, Wild: 0
oat, wild [12]; [23]
  Oat, Wild plant response rating: 0
oat, wild [13]; [24]
  Plant response rating, Oat, Wild: 0
oat, wild [13]; [25]
  Plant response rating, Oat, Wild: 0
pigweed, palmer [14]; [24]
  Plant response rating, Pigweed, Palmer: 10
pigweed, palmer [14]; [25]
  Plant response rating, Pigweed, Palmer: 60
Barnyardgrass [15]; [24]
  Plant response rating, Barnyardgrass: 10
Barnyardgrass [15]; [25]
  Plant response rating, Barnyardgrass: 10
Soybean [16]; [22]
  Plant response rating, Soybean: 0
Soybean [16]; [23]
  Soybean plant response rating: 0
galium; [24]
  Plant response rating, Galium: 50
galium; [25]
  Plant response rating, Galium: 90
Corn [17]; [24]
  Plant response rating, Corn: 0
Corn [17]; [25]
  Plant response rating, Corn: 10
Blackgrass [18]; [24]
  Plant response rating, Blackgrass: 0
Blackgrass [18]; [25]
  Plant response rating, Blackgrass: 0
horseweed; [24]
  Plant response rating, Horseweed: 0
horseweed; [25]
  Plant response rating, Horseweed: 40
sedge, umbrella
  Plant response rating, Sedge, Umbrella (Flood): 0
Ragweed [19]
  Plant response rating, Ragweed: 10
Green foxtail [20]; [24]
  Plant response rating, Foxtail, Green: 10
Green foxtail [20]; [25]
  Plant response rating, Foxtail, Green: 20
ryegrass, Italian; [24]
  Plant response rating, Ryegrass, Italian: 0
ryegrass, Italian; [25]
  Plant response rating, Ryegrass, Italian: 20
pigweed, palmer [21]; [22]
  Plant response rating, Pigweed, Palmer: 10
pigweed, palmer [21]; [23]
  Pigweed, Palmer plant response rating: 0
